Assay results as given in patent US11525063B2, “Fluorescent oxygen sensing ink” (The Board of Trustees of Western Michigan University, priority 2018, dated 2022).
Like-named read-outs stand apart in the source and are kept apart here.

Experiments:
[1] = tested on: L-929 mouse fibroblast cells
Protocol: (§1) All samples were ≤0.5 mm thick and prepared as 8 mm-diameter discs (surface area of 0.50 cm^2). […] An aliquot was counted using trypan blue, and then cells were re-suspended in complete growth medium at a density of 1×10^5 cells/ml. […] After 24 h, the culture medium was removed and replaced with 100 μl of extractant. Some wells received sodium dodecyl sulfate (0 to 400 μM in EMEM; positive controls), low-density polyethylene extract (1.25 cm^2 LDPE/ml EMEM; negative control), or complete growth medium alone. Cells were then cultured for an additional 24 h. Images (mag. of 100× and 200×) of cell cultures were recorded by photo microscopy using a Olympus CK40 inverted microscope and Insight2 SPOT camera (Diagnostic Imaging) and the number of attached and dead cells were manually counted at a later time using ImageJ (NIH). […] Subsequently, cells in culture plates were washed once with Hank's Balanced Salt Solution and metabolic activity was measured by incubating cells with 100 μl of WST-1 cell proliferation reagent (Roche Diagnostics) for up to 4 h at 37° C. To determine cytotoxicity, absorbance of the medium in wells was measured at 450 nm after 2 and 4 h using a microplate reader (PHERAstar) and was corrected using absorbance measurements at 630 nm and using blanks. To check for mycoplasma contamination of the cultures, medium was saved and tested using the luminescent MycoAlert Plus mycoplasma detection kit (Lonza).
Absorbance is proportional to the amount of formazan product generated by the metabolic activity of cells. Thus, lower absorbance values correlate with increased cytotoxicity.
An aliquot was counted using trypan blue, and then cells were re-suspended in complete growth medium at a density of 1×10^5 cells/ml. […] After 24 h, the culture medium was removed and replaced with 100 μl of extractant. Some wells received sodium dodecyl sulfate (SDS; 0 to 400 μM in EMEM; positive controls), low-density polyethylene extract (1.25 cm^2 LDPE/ml EMEM; negative control) or complete growth medium alone. Cells were then cultured for an additional 24 h. Subsequently, cells in culture plates were washed once with HBSS and metabolic activity was measured by incubating cells with 100 μl of WST-1 cell proliferation reagent (Roche Diagnostics) for up to 4 h at 37° C.
To determine cytotoxicity, absorbance of the medium in wells was measured at 450 nm after 2 and/or 4 h using a microplate reader (PHERAstar) and was corrected using absorbance measurements at 630 nm and using blanks. Absorbance levels are proportional to the metabolic activity of cells and therefore inversely related to cytotoxicity. To check for mycoplasma contamination of the cultures, medium was saved and tested using the luminescent MycoAlert Plus mycoplasma detection kit (Lonza). Statistical significance was determined using analysis of variance and Tukey-Kramer post-test.

[2] = Effect of sterilization process (H2O2 vapor treatment) on emission peak; format: physicochemical
Protocol: The fluorescent properties of two materials being encapsulated in both poly-styrene and PDMS (polydimethylsiloxane) polymer binder materials were measured to determine the suitability of the materials in an oxygen sensing system. […] Then 20 μL of mixed solution was cast onto filter paper to form a patch with a diameter of 8 mm. The patch was left in the nitrogen chamber for drying for 24-hours before testing. The PDMS encapsulated sensing patches were fabricated by firstly depositing dye solution onto the filter paper. PDMS was then added to the filter paper after the removal of the solvent. The same amount of dye was used for all samples. The fluorescence spectrum was measured using a UV spectrophotometer. A zero oxygen solution was prepared by nitrogen bubbling a 0.15 mol/L Na2SO3 solution for 30 minutes.

[3] = tested on: L-929 mouse fibroblast cells; conditions: 150 μM SDS in EMEM, 24 h
Protocol: as §1, with “To check for mycoplasma contamination of the cultures, medium was saved and tested using the luminescent MycoAlert Plus mycoplasma detection kit (Lonza).” left out

| SMILES | cytotoxicity of extract (conclusion in words) ([1]; cells treated 24 h with extract of Sterrad-sterilized sample) | cytotoxicity of extract (conclusion in words) ([1]; cells treated 24 h with extract of Sterrad-sterilized sample, listed as ruthenium alone on paper) | Mean absorbance (corrected, 450 nm) ([1]; cells treated 24 h with extract of Sterrad-sterilized sample, lower absorbance = more cytotoxic) | metabolic activity relative to cells cultured in EMEM alone ([1]; cells treated 24 h with extract, below 70% considered cytotoxic) | stability to H2O2 vapor treatment [2] | Emission peak After Sterilization ([2]; after H2O2 vapor treatment) | Emission peak Before Sterilization ([2]; before H2O2 vapor treatment) | Mean absorption reading ([1]; 300 μM SDS in EMEM, 24 h) | Concentrations of SDS that were cytotoxic ([1]; mouse) | Morphology score [3] |
| --- | --- | --- | --- | --- | --- | --- | --- | --- | --- | --- |
| [Cl-].[Cl-].[Ru+2].c1ccc(-c2ccnc3c2ccc2c(-c4ccccc4)ccnc23)cc1.c1ccc(-c2ccnc3c2ccc2c(-c4ccccc4)ccnc23)cc1.c1ccc(-c2ccnc3c2ccc2c(-c4ccccc4)ccnc23)cc1 [Ru(dpp)3Cl2, Tris(4,7-diphenyl-1,10-phenanthroline) ruthenium II dichloride] | considerable cytotoxicity | cytotoxic | 0.318 | 38.4% | more vulnerable | No emission peak detected | Emission peak detected |  |  |  |
| CCCCCCCCCCCCOS(=O)(=O)[O-].[Na+] [SDS, sodium dodecyl sulfate, reference compound] |  |  |  |  |  |  |  | 0 | above 200 μM | 2 |
